These are literature values, as cited in patent publication EP1146906B1, “MUCOSAL DELIVERY SYSTEM” (Alk-Abelló A/S, priority 1999, dated 2000).

As a reminder, the bioavailability is dose-corrected exposure relative to a reference, in per cent.

The conditions of the data set: compared to the parenteral equivalent.

Where two headings read alike, the source gives them in different places.

As to desmopression, the bioavailability is, setting by setting: (after nasal administration) 10%; (after oral administration) 1%.
